Source: US6054441A, “Oxypurine nucleosides and their congeners, and acyl derivatives thereof, for improvement of hematopoiesis” (priority 1995, dated 2000)

How the values were obtained:
Type in all cases: in vivo, Balb/C mice
[1] = tested on: hematopoietic recovery after 5-fluorouracil; test: Hematopoietic recovery after 5-fluorouracil (Example 42)
Protocol: 5-fluorouracil (5-FU) (150 mg/kg, i.p.) was administered to forty Balb/C female mice weighing approximately 20 grams each. Twenty-four hours later and each day thereafter for a total of 8 days, mice were given a 0.4 ml i.p. injection of either physiological saline (controls) or 5'-O-palmitoylguanosine (2.5 μmoles/mouse/day in 0.2% Tween 80). On days 7 and 14 following 5-FU administration half of the animals from each group were bled and then were sacrificed by cervical dislocation. Spleens were removed and weighed, and complete blood cells counts performed.

[2] = tested on: hematopoietic recovery after cyclophosphamide; test: Comparative dose-response, hematopoietic recovery after cyclophosphamide (Example 53)
Protocol: Cyclophosphamide (CP) (275 mg/kg, i.p.) was administered to 96 Balb/C female mice weighing approximately 20 grams each. Twenty-four hours later and each day thereafter mice were given a 0.4 ml i.p. injection of either physiological saline (controls), palmitoylguanosine at one of four different doses: 0.2, 0.4, 1.0 or 2.0 μmoles/mouse), or palmitoyldeoxyguanosine at a dose of 1.0 μmoles/mouse. On days 5 and 7 following CP administration 8 animals from each of the 6 groups were bled and then sacrificed by cervical dislocation. Spleens were removed and weighed, and complete blood cell counts performed.

bone marrow cells = test: Colony forming units in bone marrow of mice recovering from cyclophosphamide (Example 40); conditions: 2.5 μmoles/mouse/day i.p.
Protocol: Seventy-two Balb/C female mice weighing approximately 20 grams each were given cyclophosphamide (275 mg/kg) by intraperitoneal (i.p.) injection. Twenty-four hours later and each day thereafter, mice received a 0.4 ml i.p. injection of either physiological saline (control) or palmitoylguanosine (2.5 μmoles/mouse/day in 0.2% Tween 80). On days 3, 5, 7, and 10 following CP administration 6 animals from each group were sacrificed by cervical dislocation, and the left femur of each animal obtained by sterile means. The bone marrow cells were then flushed from the femurs with McCoy's 5a Modified medium using a 23-gauge needle. Cells from femurs in the same group were pooled, dispersed by briefly vortexing, and counted using a hemocytometer. Cell suspensions were added to McCoy's Modified 5a medium containing 15% bovine calf serum, 1x Kanamycin, 0.3% agar, and 3% endotoxin-stimulated serum. […] Each group was plated in quintuplicate. After 7 days in culture (at 37° in 5% CO2 and humidified air) aggregates of 50 cells or more ("colonies") were counted using a dissecting microscope at 25x.

irradiated mice = test: Survival of irradiated mice (Example 39); conditions: for mice surviving 30 days after irradiation over number irradiated: 50 mg/kg i.p., 6 days after irradiation
Protocol: Thirty female Balb/C mice weighing 20 grams each were irradiated with Cobalt 60 gamma radiation at a dose rate of 7.3 Rads per minute. The total dose was either 700, 725, or 750 Rads. Twenty-four hours later and each day thereafter for a total of 6 days, these mice received an i.p. injection of either physiological saline (controls) or 50 mg/kg of palmitoylguanosine. The number of animals surviving in each group was observed over a 30 day period.

[3] = tested on: hematopoiesis in normal mice; test: Hematopoiesis in normal mice (Example 44)
Protocol: Normal, otherwise untreated, female Balb/C mice weighing approximately 20 grams each received a total of 4 or 9 0.4 ml intraperitoneal injections (one per day) of either Tween-80 (0.2%) (controls), palmitoylguanosine (2.5 μmoles/mouse/day), or palmitoyldeoxyinosine (2.5 μmoles/mouse/day). Twenty-four hours after the 4th or 9th treatment, groups of 5 or 6 animals from each of the 3 groups were bled and then sacrificed by cervical dislocation. Spleens were removed and weighed, and complete blood cell counts performed.

[4] = tested on: hematopoietic recovery after cyclophosphamide; test: Hematopoietic recovery after cyclophosphamide (Example 47)
Protocol: Cyclophosphamide (CP) (275 mg/kg, i.p.) was administered to 48 Balb/C female mice weighing approximately 20 grams each. Twenty-four hours later and each day thereafter for a total of 6 days, mice were given a 0.4 ml i.p. injection of either physiological saline (controls), benzoylguanosine (2.5 μmoles/mouse/day in 0.2% Tween 80), or palmitoylguanosine (2.5 μmoles/mouse/day in 0.2% Tween 80). On days 7 and 10 following CP administration 8 animals from each of the 3 groups were bled and then were sacrificed by cervical dislocation. Spleens were removed and weighed, and complete blood cell counts performed.

[5] = tested on: hematopoiesis in normal mice; test: Hematopoiesis in normal mice (Example 56); conditions: day 5; 2.6 μmoles/mouse, 4 days
Procedure, shortened: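 Normal female Balb/C mice (~20 g; 3 per group) received daily i.p. saline or acylated guanosine derivatives (2.6 μmoles/mouse) for 4 days. On day 5, animals were bled and sacrificed. Spleen weights, complete blood counts and femoral marrow differential counts were recorded.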

[6] = tested on: hematopoietic recovery after 5-fluorouracil; test: Hematopoietic recovery after 5-fluorouracil (Example 43)
Protocol: 5-fluorouracil (5-FU) (150 mg/kg,i.p.) was administered to fifty-four Balb/C female mice weighing approximately 20 grams each. Twenty-four hours later and each day thereafter for a total of 7 days, mice were given a 0.4 ml i.p. injection of either physiological saline (controls) or palmitoylguanosine (2.5 μmoles/mouse/day in 0.2% Tween 80). On days 8, 10 and 12 following administration of 5-FU nine animals from each group were bled and then sacrificed by cervical dislocation. Spleens were removed and weighed, and complete blood cell counts performed.

[7] = day 5, palmitoylguanosine 2.0, palmitoyldeoxyguanosine 1.0 μmoles/mouse
[8] = day 7, palmitoylguanosine 1.0 and 2.0, palmitoyldeoxyguanosine 1.0 μmoles/mouse

CCCCCCCCCCCCCCCC(=O)OC[C@H]1O[C@@H](n2cnc3c(=O)[nH]c(N)nc32)[C@H](O)[C@@H]1O was tested, and the spleen weight ([1]; day 7, 2.5 μmoles/mouse/day i.p.) was “slight, but statistically significant, increase in spleen weight”, the other parameters ([1]; day 7, vs control) was “No other differences” and the Lymphocytes ([1]; day 14) was “significantly higher numbers”. For the same molecule, the Neutrophils ([1]; day 14) was “significantly higher numbers”, the Platelets ([1]; day 14) was “significantly higher numbers” and the spleen weight ([1]; day 14) was “significantly heavier spleens”. For the same molecule, the total leukocytes ([1]; day 14) was “significantly higher numbers”, the total neutrophil counts ([2]; day 5, palmitoylguanosine 1.0 μmoles/mouse) was “significantly increased” and the spleen weight [2, 7] was “significantly elevated”. The total neutrophil counts [2, 7] was “significantly elevated”, the “white blood cell counts” value [2, 7] was “significantly elevated” and the spleen weight [2, 8] was “significantly elevated”. For the same molecule, the total neutrophil counts [2, 8] was “significantly elevated”, the “white blood cell counts” value [2, 8] was “significantly elevated” and the colony-forming units (bone marrow cells; day 3) was 645 ± 26 colonyforming units per femur. The colony-forming units (bone marrow cells; day 5) was 2327 ± 121 colonyforming units per femur, the colony-forming units (bone marrow cells; day 7) was 1328 ± 140 colonyforming units per femur and the colony-forming units (bone marrow cells; day 10) was 647 ± 25 colonyforming units per femur. For the same molecule, the mice surviving (irradiated mice; 2 higher radiation doses, 30 days) was “all of the mice treated with palmitoylguanosine survived”, the “mice surviving 30 days after irradiation over number irradiated” value (irradiated mice; 725 R) was 5/5 and the “mice surviving 30 days after irradiation over number irradiated” value (irradiated mice; 750 R) was 5/5. For the same molecule, the survival (irradiated mice; pretreatment prior to irradiation) was “improved survival”, the spleen weight ([3]; day 5, 2.5 μmoles/mouse/day i.p.) was “significantly greater” and the total leukocyte counts ([3]; day 10, vs Tween 80) was “significantly elevated”. The Neutrophils ([4]; day 7, 2.5 μmoles/mouse/day) was “significantly elevated”, the spleen weight ([4]; day 7, 2.5 μmoles/mouse/day) was “significantly elevated” and the “total white blood cells” value ([4]; day 7, 2.5 μmoles/mouse/day) was “significantly elevated”. For the same molecule, the platelet number ([4]; day 10) was “significantly greater”, the spleen weight [5] was “significantly elevated” and the Platelets ([6]; day 8, 2.5 μmoles/mouse/day i.p., vs control) was “significantly greater”. For the same molecule, the Platelets ([6]; day 10, vs control) was “greater numbers of platelets”, the spleen size ([6]; day 10, vs saline) was “significantly larger” and the “number of neutrophils, fold greater than control” value ([6]; day 12) was 3 fold. For the same molecule, the spleen weight ([6]; day 12, vs control) was “more than double”.
